Patent publication US20090022720A1, “Conjugate of an antibody against CD4 and antifusogenic peptides” (priority 2007, published 2009)

How the values were obtained:
[1] = test system: NL-BAL (R5); assay: Single-cycle antiviral activity assay (luciferase, JC53-BL cells), NL-BAL; format: cell-based, HIV; conditions: Table 3, by weight, pseudotyped virus, 3 day incubation
Procedure: For the production of pseudotyped NL-Bal viruses, plasmid pNL4-3Δenv (HIV pNL4-3 genomic construct with a deletion within the env gene) and pcDNA3.1/NL-BAL env (pcDNA3.1 plasmid containing NL-Bal env gene (obtained from NIBSC Centralized Facility for AIDS Reagents)) were co-transfected into the HEK 293FT cell line (Invitrogen Corp.), cultured in Dulbecco's modified minimum medium (DMEM) containing 10% fetal calf serum (FCS), 100 U/mL Penicillin, 100 μg/mL Streptomycin, 2 mM L-glutamine and 0.5 mg/mL geniticin (all media from Invitrogen/Gibco). The supernatants containing pseudotyped viruses were harvested two days following transfection, and cellular debris was removed by filtration through a […] pore size PES (polyethersulfone) filter (Nalgene) and stored at −80° C. in aliquots. For normalization in assay performance, virus stock aliquots were used to infect JC53-BL (US NIH Aids Reagent Program) cells yielding approximately 1.5×10^5 RLU (relative light units) per well. […] The assay plates were read on a Luminometer (Luminoskan, Thermo Electron Corporation) after 10 minutes of incubation at room temperature. Percent inhibition of luciferase activity was calculated for each dose point after subtracting the background, and IC50 and IC90-values were determined by using XLfit curve fitting software for Excel (version 3.0.5 Build12; Microsoft).

[2] = test system: NL-BAL; assay: Antiviral activity assay in peripheral blood mononuclear cells (PBMC), p24 ELISA, NL-BAL; format: cell-based, HIV-1; conditions: Table 5, by weight; human PBMC, 6 days
Procedure: Human PBMC are isolated from buffy-coats (obtained from the Stanford Blood Center) by a Ficoll-Paque (Amersham, Piscataway, N.J., USA) density gradient centrifugation according to manufacturer's protocol. Briefly, blood is transferred from the buffy coats in 50 ml conical tubes and diluted with sterile Dulbecco's phosphate buffered saline (Invitrogen/Gibco) to a final volume of 50 ml. Twenty-five ml of the diluted blood are transferred to two 50 ml conical tubes, carefully underlayerd with 12.5 ml of Ficoll-Paque Plus (Amersham Biosciences) and centrifuged at room temperature for 20 min. at 450×g without braking. The white cell layer is carefully transferred to a new 50 ml conical tube and washed twice with PBS. To remove remaining red blood cells, cells are incubated for 5 min. at room temperature with ACK lysis buffer (Biosource) and washed one more time with PBS. PBMC are counted and incubated at a concentration of 2-4×10^6 cells/ml in RPMI1640 containing 10% FCS (Invitrogen/Gibco), 1% penicillin/streptomycin, 2 mM L-glutamine, 1 mM sodium-pyruvate, and 2 μg/ml Phyto-hemagglutinin (Invitrogen) for 24 h at 37° C. […] Virus production is measured at the end of infection by using p24 ELISA (HIV-1 p24 ELISA #NEK050B, Perkin Elmer/NEN) using the sigmoid dose-response model with one binding site in Microsoft Excel Fit (version 3.0.5 Build 12; equation 205; Microsoft).

Sequence: NMTWMEWDREINQYTSLIHSLIEESQNQQEKNEQELL [afp-1]
- Antiviral activity NL-BAL (R5) IC50 [1]: 19.6/— ng/mL
- Antiviral activity NL-BAL IC90 [2]: —/57.6 ng/mL
